Results on one molecule are retold here after paper PMC3005762 (Chemical communications (Cambridge, England), 2010).

In this experiment the target is T1, DC-SIGN (Homo sapiens, UniProt Q9NNX6).
T1 sequence (Q9NNX6 59-404 limits assumed): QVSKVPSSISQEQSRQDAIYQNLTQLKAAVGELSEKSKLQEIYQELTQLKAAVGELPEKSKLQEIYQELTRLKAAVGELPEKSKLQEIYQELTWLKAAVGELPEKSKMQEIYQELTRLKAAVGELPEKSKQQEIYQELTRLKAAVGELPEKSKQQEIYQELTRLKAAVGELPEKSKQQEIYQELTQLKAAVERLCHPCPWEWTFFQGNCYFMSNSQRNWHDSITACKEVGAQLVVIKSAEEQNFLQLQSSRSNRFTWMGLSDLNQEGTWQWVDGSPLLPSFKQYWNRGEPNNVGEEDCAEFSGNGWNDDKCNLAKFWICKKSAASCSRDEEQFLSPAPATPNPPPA
The format is binding.

The molecule `CC(=O)N[C@@H]1C(O)O[C@H](CO)[C@@H](O)[C@@H]1O` (stereo partly shown) [N-acetylmannosamine] yielded a concentration for half-maximal inhibition (IC50) of 11.2 ± 0.7 mM.

As usually defined, the IC50 is the concentration needed to halve the response being measured. Low values mean greater potency in that assay, high ones weaker potency in that assay.
